The results in this text go back to ChEMBL document CHEMBL1909046, “DrugMatrix in vitro pharmacology data”.

A short description of assay [1]: DRUGMATRIX: Sigma2 radioligand binding (ligand: [3H] Ifenprodil). Format: cell membranes, Rattus norvegicus, Wistar, Brain, Membrane. The conditions noted are these: Not Active = under 50% inhibition at 10 µM.
Assay [2] deals with T1, Leukotriene C4 synthase (Cavia porcellus, UniProt A6XA80).
T1 sequence (A6XA80 whole entry): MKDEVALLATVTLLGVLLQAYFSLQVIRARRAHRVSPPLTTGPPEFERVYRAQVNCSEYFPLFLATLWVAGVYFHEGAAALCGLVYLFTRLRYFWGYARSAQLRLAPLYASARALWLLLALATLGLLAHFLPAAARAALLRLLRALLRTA
Type of assay: tissue-based, Lung.

Assay [3] concerns the target Epidermal growth factor receptor (Homo sapiens, UniProt P00533). The assay can be described thus: DRUGMATRIX: Protein Tyrosine Kinase, EGF Receptor enzyme inhibition (substrate: Poly(Glu:Tyr)). Type of assay: cell-based, Insect cells. The conditions noted are these: Not Active = under 50% inhibition at 10 µM.
Assay [4] is described as follows: DRUGMATRIX: Phosphodiesterase PDE3 enzyme inhibition (substrate: [3H]cAMP + cAMP). Type of assay: tissue-based, Homo sapiens. The conditions noted are these: platelet; Not Active = under 50% inhibition at 10 µM.
Assay [5] concerns the target Beta-3 adrenergic receptor (Homo sapiens, UniProt P13945). The assay can be described thus: DRUGMATRIX: Adrenergic beta3 radioligand binding (ligand: [125I] Cyanopindolol). Format: cell membranes, Membrane. To be noted: hek293; Not Active = under 50% inhibition at 10 µM.
For assay [6], the target named is D(3) dopamine receptor (Homo sapiens, UniProt P35462). The assay can be described thus: DRUGMATRIX: Dopamine D3 radioligand binding (ligand: [3H] Spiperone). To be noted: cho. Format: cell membranes, CHO, Membrane.
Assay [7] deals with T2, Polyunsaturated fatty acid lipoxygenase ALOX15 (Oryctolagus cuniculus, UniProt P12530).
T2 sequence (P12530 whole entry): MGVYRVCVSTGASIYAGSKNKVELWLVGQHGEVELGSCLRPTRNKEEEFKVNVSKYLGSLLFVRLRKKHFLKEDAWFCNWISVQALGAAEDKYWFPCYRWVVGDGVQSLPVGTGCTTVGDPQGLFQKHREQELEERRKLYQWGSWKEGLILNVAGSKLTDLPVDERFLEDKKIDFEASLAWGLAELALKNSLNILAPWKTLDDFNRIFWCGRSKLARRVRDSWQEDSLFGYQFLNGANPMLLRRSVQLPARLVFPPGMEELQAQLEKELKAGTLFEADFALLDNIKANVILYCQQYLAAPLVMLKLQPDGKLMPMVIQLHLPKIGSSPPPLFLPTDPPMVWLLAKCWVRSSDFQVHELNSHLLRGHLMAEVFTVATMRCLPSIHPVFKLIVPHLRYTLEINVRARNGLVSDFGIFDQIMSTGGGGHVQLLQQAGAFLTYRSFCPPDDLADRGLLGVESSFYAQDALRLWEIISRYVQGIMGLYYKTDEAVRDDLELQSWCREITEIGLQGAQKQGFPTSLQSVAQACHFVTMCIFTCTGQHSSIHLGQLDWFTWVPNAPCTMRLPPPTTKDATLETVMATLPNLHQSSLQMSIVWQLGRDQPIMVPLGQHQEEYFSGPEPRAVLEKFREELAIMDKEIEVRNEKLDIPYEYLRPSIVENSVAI
The assay can be described thus: biochemical. Format: tissue-based, Reticulocytes.

Assay [8] can be described thus: DRUGMATRIX: Tumor Necrosis Factor (TNF), Non-Selective radioligand binding (ligand: [125I] TNF-alpha). To be noted: u-937; Not Active = under 50% inhibition at 10 µM. Type of assay: cell membranes, Membrane.
The target in assay [9] is Beta-2 adrenergic receptor (Homo sapiens, UniProt P07550). Kind of assay: DRUGMATRIX: Adrenergic beta2 radioligand binding (ligand: [3H] CGP-12177). Type of assay: cell membranes, Membrane. To be noted: cho; Not Active = under 50% inhibition at 10 µM.
Assay [10] concerns the target Adenosine receptor A2a (Homo sapiens, UniProt P29274). The assay can be described thus: DRUGMATRIX: Adenosine A2A radioligand binding (ligand: […]). Type of assay: cell membranes, HEK293, Membrane. To be noted: hek293; Not Active = under 50% inhibition at 10 µM.

Structures are written as SMILES.

D(3) dopamine receptor, sequence (P35462 whole entry): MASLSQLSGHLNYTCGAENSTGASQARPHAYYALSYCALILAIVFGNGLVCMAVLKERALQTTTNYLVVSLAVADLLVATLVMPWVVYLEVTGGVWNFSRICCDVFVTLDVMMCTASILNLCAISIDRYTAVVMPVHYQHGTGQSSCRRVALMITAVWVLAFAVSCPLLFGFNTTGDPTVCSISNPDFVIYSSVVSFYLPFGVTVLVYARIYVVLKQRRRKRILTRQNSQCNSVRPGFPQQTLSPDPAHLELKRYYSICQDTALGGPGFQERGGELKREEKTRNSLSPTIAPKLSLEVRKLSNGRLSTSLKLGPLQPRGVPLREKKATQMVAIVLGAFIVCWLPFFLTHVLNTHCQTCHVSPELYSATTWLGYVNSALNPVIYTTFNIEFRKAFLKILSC
Beta-2 adrenergic receptor, sequence (P07550 whole entry): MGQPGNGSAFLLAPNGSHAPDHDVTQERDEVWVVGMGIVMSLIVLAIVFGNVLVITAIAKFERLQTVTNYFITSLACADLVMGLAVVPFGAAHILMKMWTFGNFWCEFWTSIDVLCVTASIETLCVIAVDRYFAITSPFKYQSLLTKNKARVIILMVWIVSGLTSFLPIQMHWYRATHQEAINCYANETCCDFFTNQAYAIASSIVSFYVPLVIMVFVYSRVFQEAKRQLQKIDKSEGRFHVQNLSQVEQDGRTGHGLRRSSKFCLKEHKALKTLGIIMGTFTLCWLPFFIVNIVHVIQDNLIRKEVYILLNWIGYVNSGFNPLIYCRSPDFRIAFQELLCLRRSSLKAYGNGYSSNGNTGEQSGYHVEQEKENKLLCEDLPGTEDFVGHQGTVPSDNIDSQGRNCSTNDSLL
Epidermal growth factor receptor, sequence (P00533 whole entry): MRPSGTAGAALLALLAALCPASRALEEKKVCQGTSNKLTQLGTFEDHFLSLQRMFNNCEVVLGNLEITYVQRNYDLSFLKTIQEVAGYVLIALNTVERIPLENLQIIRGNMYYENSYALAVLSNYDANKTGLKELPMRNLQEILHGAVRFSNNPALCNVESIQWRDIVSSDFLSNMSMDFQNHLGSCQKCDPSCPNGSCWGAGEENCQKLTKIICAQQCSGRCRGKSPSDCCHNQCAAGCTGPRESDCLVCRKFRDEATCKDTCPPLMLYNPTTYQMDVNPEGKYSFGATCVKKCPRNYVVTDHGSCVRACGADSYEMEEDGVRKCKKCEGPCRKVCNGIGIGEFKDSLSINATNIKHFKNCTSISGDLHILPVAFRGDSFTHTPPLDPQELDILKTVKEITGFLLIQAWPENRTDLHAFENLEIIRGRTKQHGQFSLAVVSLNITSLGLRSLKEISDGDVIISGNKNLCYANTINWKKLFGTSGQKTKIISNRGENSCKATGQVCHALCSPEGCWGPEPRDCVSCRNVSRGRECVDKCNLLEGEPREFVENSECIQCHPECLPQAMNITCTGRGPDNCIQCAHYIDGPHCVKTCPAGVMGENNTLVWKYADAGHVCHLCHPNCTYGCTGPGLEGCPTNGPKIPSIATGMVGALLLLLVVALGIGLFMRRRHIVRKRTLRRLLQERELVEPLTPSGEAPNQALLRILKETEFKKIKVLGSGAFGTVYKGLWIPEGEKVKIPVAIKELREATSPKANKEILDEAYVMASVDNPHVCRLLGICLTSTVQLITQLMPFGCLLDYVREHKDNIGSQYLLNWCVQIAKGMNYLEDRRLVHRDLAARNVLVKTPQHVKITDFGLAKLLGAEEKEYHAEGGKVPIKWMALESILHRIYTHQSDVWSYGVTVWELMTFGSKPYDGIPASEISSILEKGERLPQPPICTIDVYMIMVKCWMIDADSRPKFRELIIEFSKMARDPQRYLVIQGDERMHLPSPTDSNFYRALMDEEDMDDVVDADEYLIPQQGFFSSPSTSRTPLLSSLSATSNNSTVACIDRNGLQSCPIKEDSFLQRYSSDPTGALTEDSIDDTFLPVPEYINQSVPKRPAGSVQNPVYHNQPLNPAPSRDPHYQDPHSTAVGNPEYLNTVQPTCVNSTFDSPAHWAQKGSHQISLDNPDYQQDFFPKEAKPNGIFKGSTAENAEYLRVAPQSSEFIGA
Beta-3 adrenergic receptor, sequence (P13945 whole entry): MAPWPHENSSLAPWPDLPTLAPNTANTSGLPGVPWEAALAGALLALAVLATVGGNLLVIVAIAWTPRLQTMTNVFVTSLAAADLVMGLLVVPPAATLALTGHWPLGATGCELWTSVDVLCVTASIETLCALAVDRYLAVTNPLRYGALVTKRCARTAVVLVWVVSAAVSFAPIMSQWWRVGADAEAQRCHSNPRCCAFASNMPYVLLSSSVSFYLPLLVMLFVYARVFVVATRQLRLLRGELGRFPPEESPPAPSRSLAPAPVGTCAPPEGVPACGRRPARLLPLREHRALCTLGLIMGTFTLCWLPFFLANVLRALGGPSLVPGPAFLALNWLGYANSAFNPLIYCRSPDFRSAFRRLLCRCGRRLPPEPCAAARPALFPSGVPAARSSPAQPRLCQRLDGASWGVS
Adenosine receptor A2a, sequence (P29274 whole entry): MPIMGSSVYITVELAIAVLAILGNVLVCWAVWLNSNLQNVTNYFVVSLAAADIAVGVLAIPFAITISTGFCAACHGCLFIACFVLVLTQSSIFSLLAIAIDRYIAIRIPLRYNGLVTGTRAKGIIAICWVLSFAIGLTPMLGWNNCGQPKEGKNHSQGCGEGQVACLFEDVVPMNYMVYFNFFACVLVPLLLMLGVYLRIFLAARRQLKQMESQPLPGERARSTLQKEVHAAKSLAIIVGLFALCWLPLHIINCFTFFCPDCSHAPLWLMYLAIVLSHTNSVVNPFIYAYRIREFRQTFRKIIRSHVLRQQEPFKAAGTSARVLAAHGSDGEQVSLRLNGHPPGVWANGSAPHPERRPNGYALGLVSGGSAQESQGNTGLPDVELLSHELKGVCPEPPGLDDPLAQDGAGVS

Consider `CC[C@]1(O)C[C@@H]2CN(CCc3c([nH]c4ccccc34)[C@@](C(=O)OC)(c3cc4c(cc3OC)N(C)[C@H]3[C@@](O)(C(=O)OC)[C@H](OC(C)=O)[C@]5(CC)C=CCN6CC[C@]43[C@@H]65)C2)C1` [VINBLASTINE], for which the IC50 entry in [1], in assay [2], in assay [3] (insect cells), in assay [4], in [5] and in assay [6] was “Not Active” in each case. Moreover, the IC50 (usually the point on the concentration scale where inhibition reaches its midpoint) is 5.04 µM in assay [7] (read-out: IC50), “Not Active” in assay [8], “Not Active” in assay [9] and “Not Active” in assay [10]. Further, the Ki result in assay [1], in [4] and in assay [8] was “Not Active” each time.
For `CC(=O)CC(c1ccccc1)c1c(O)c2ccccc2oc1=O` (centres undefined) [WARFARIN], the 50% inhibitory concentration (IC50) entry in assay [1], in assay [2], in [3] (insect cells), in [4], in assay [5] and in [6] was “Not Active” in each case. Moreover, the 50% inhibitory concentration (IC50) result in [7] (reticulocytes), in assay [8], in assay [9] and in [10] was “Not Active” each time. The Ki entry in assay [1], in assay [4] and in assay [8] was “Not Active” in each case.
As for `[Cl-].[Cl-].[Zn+2]` [ZINC CHLORIDE], the IC50 result in assay [1] is “Not Active”; in assay [2] it was “Not Active”; in [3] (read-out: IC50), 2.19 µM; in assay [4], “Not Active”; in [5] it was “Not Active”; in assay [6], “Not Active”. Besides, the 50% inhibitory concentration (IC50) result in assay [7] (reticulocytes), in [8], in assay [9] and in assay [10] was “Not Active” in each case. Further, the Ki result in assay [1], in [4] and in assay [8] was “Not Active” throughout.
